Experimental data published in patent publication US20100056555A1, “METHOD OF TREATING RAS ASSOCIATED CANCER” (ENZON PHARMACEUTICALS, INC., priority 2008, published 2010).
“And” between values parts separate entries of the source, which are not always exact repeats. Identical values can stand only once. Like-named read-outs stand apart in the source and are kept apart here.

Legend:
[1] = system: SW480 Human colorectal carcinoma cells; assay: Kras mutant xenograft model of human colorectal cancer (SW480), single agent therapy; settings: SW480 xenograft mice, Day 22
[2] = system: MiaPaCA-2 pancreatic cells; assay: Kras mutant pancreatic cancer xenograft model (MiaPaCa-2); type: in vivo, human; settings: MiaPaCa-2 xenograft mice
[3] = system: SW480 Human colorectal carcinoma cells; assay: SW480 human colorectal xenografts, Erbitux failed tumors; settings: 40 mg/kg q2dx7 after C-225 challenge; SW480 xenograft mice; Day 22
[4] = system: Calu-6 Human Lung Carcinoma cells; assay: Calu 6 Kras mutant xenografts that failed C225 (Erbitux) therapy; settings: 40 mg/kg q2dx5 after C-225 challenge, Calu-6 xenograft mice
[5] = system: Calu-6 Human Lung Carcinoma cells; settings: Calu-6 xenograft mice; for % T/C / % TGI: day 20; for Observed cures: day 57

`CCc1c2c(nc3ccc(OC(=O)N4CCC(N5CCCCC5)CC4)cc13)-c1cc3c(c(=O)n1C2)COC(=O)[C@]3(O)CC` [CPT-11, Irinotecan] was tested, and the “% TGI” value ([1]; 40 mg/kg q2dx5) was 65% and 64.76%, the “Percent Change in TV” value ([1]; 40 mg/kg q2dx5) was 163.62% and the “% T/C” value ([1]; 80 mg/kg qdx1) was 66.60%. For the same molecule, the “% TGI” value ([1]; 80 mg/kg qdx1) was 47% and 46.53%, the “Percent Change in TV” value ([1]; 80 mg/kg qdx1) was 397.75% and the TGI ([2]; CPT-11 at corresponding dose level as compound 9 (10 mg/kg, q2d×5)) was 20%. The TGI ([2]; multiple-dose at MTD of CPT-11 (40 mg/kg q2d×5)) was 47%, the “effect on tumor growth” value ([2]; single dose at the MTD (80 mg/kg qd×1)) was “no effect on tumor growth” and the “% TGI” value [3] was 65.38%. The “Percent Change in TV” value [3] was 219.31%, the “% TGI” value ([4]; day 20) was 84% and the Observed cures ([4]; day 57) was 0/8. The “% T/C” value ([5]; 40 mg/kg q2dx5) was 5%, the “% TGI” value ([5]; 40 mg/kg q2dx5) was 95% and the Observed cures ([5]; 40 mg/kg q2dx5) was 0/8. The “day by which animals relapsed” value ([5]; 40 mg/kg q2d×5) was 40 to 45 days, the “% T/C” value ([5]; 80 mg/kg qdx1) was 48% and the “% TGI” value ([5]; 80 mg/kg qdx1) was 52%. The Observed cures ([5]; 80 mg/kg qdx1) was 0/8 and the “day by which all animals had to be sacrificed due to excessive tumor burden” value ([5]; 80 mg/kg qd×1) was 22 to 24 days.
